Blank lines part the entries; values can stand above or below the compound they belong to. Where a SMILES comes first, the peptide text is derived from it. [ ]: non-standard residue; d: D form. Sar = CNCC(=O)O
Legend:
human OCT3 = biological target: T1, human OCT3 (Homo sapiens, UniProt O75751); experiment: SLC transporter substrate assay, HEK293-OCT3-LV vs control HEK293-Mock-LV cells; type: in vitro ADME; conditions: 3 min
T1 construct: host or cells: HEK293-OCT3-LV
T1 sequence (O75751 1-556): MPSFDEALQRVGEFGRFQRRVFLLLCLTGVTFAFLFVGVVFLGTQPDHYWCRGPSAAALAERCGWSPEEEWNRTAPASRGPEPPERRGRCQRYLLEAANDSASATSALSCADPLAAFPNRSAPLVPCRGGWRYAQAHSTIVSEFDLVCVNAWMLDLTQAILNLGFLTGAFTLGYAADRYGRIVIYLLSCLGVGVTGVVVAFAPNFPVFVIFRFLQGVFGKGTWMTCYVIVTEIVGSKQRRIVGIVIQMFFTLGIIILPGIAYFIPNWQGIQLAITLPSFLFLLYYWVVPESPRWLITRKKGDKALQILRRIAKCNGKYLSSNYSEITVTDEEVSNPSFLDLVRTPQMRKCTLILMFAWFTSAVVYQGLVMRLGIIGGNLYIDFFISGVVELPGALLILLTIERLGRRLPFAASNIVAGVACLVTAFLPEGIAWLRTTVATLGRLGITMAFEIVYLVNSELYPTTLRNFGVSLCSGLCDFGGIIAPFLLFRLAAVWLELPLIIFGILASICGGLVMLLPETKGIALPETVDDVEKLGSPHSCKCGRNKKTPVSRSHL
Method: (§1) SI4. Results of transporter substrate assays (SLC)
(§2) Human Incubation Positive control substrate/ Control Special Incubation Assay […]
(Cell line) at 37°C [min] [h] […]
into transfected and control cells.
(§3) Fold accumulation = UPTTRP
(§4) PSMA-617 in SLC transporters.
(§5) NA: not analyzed. Test substances were considered as substrates in case of fold accumulation values > 2 combined with inhibition values higher than 50%.
4.7 Organic cation transporter OCT3
(HEK293-OCT3-LV) and control cells (HEK293-Mock-LV) applying 2- and 20-minute incubation periods, measured in SLC transporter substrate assay. […] Concentrations are nominal.
Table S16: ([α,β-3H]Nal)Lu-PSMA-617-accumulation in OCT3 transporter-expressing (HEK293-OCT3-LV) and control […]
(§6) Conditions Accumulation (pmol/mg protein)
Compound Nominal In OCT3 Fold concentration Minutes transporter In control Active accumulation
(§7) [µM] expressing cells transport
(§8) Positive control (accumulation in cpm)
MPP +: 1-methyl -4-phenylpyridinium.

human OAT2v1 = biological target: T2, human OAT2v1 (Homo sapiens, UniProt Q9Y694); experiment: SLC transporter substrate assay, HEK293-OAT2v1-LV vs control HEK293-Mock-LV cells; type: in vitro ADME; conditions: 1 min
T2 construct: host or cells: HEK293-OAT2v1-LV
T2 sequence (Q9Y694 1-546 isoform Q9Y694-2): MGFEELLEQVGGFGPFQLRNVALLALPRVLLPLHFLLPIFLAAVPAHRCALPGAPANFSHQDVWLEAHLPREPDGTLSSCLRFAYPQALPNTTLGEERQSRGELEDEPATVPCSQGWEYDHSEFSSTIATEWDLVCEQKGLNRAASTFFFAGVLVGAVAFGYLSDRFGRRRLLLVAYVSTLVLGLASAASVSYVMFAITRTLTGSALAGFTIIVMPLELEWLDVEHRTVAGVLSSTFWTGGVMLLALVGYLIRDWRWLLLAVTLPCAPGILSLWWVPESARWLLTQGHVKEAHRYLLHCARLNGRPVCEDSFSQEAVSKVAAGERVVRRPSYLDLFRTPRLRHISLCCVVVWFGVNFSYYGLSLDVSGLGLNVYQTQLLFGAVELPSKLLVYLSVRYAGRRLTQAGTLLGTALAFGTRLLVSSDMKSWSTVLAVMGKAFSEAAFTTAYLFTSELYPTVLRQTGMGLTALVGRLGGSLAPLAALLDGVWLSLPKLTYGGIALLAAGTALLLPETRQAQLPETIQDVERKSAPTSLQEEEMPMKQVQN
Method: as §1, §2
(Cell line) at 37°C [min] [h]
OAT2v1 cGMP (1.5) / Mock-B- Poly-D-lysine
as §3, §4, §5
4.4 Organic anion transporter OAT2v1 […]
expressed as mean (n=3) ± SD. Concentrations are nominal.
Table S13: ([α,β-3H]Nal)Lu-PSMA-617-accumulation in OAT2v1 transporter expressing (HEK293-OAT2v1-LV) and […]
as §6
Compound Nominal In OAT2v1 Fold concentration Minutes transporter In control Active accumulation
as §7, §8

human PEPT2 = biological target: T3, human PEPT2 (Homo sapiens, UniProt Q16348); experiment: SLC transporter substrate assay, CHO-K1-PEPT2 vs control CHO-K1 cells; conditions: 8 min
T3 sequence (Q16348 1-729): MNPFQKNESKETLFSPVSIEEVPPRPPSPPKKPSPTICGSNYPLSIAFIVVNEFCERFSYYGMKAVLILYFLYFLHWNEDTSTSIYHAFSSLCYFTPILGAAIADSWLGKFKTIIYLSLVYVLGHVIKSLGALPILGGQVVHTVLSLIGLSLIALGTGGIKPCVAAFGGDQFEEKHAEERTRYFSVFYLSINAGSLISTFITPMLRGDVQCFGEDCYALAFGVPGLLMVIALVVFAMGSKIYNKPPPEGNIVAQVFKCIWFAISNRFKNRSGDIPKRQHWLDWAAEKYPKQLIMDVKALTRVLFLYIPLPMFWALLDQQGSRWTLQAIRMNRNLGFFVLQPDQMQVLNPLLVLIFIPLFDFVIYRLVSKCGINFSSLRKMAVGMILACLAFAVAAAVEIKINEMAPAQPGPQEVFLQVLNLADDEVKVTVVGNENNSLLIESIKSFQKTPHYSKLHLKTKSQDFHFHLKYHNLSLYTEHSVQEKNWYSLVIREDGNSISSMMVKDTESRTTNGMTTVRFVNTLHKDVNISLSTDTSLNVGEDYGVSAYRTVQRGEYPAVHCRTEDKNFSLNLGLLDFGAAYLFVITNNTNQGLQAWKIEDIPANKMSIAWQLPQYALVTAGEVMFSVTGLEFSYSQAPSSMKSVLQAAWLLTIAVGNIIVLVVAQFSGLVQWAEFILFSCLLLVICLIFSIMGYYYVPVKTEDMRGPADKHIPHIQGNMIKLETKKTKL
Method: The described cells were plated onto standard 24-well tissue culture plates at densities of 5 × 10^5 cells/well. […] Before starting the experiment, the cells were prepared by removing the medium and washing the cells twice with 300 µL of assay buffer. […] The cells were lysed by adding 300 µL of 0.1N NaOH, they were incubated for 10 min at 37 °C and 100 µL samples were taken from all the wells.
The amount of protein in each well was quantified using the BCA kit for protein determination (Sigma-Aldrich, St Louis, MO, USA). Positive controls were performed using a separate 96-well plate format according to Table S8 in SI4.
as §1
Table S8: Parameters of positive controls, control cell lines and plating for SLC transporters assays.
KH: Krebs-Henseleit buffer, HBSS: Hank's balanced salt solution, MES: 2 -(N-morpholino) ethanesulfonic acid, cGMP:
Guanosine cyclic phosphate, E3S: Estrone -3-sulfate, Gly-Sar: Glycylsarcosine, MPP+: 1-methyl-4-phenylpyridinium.
Calculation of fold accumulation values for SLC transporter substrate assays The fold accumulation value was defined as the ratio of uptake of the test substance (TS) or probe substrate into transfected and control cells. If the fold accumulation is > 2 and can be inhibited by a known inhibitor of the transporter, the test substance can be considered as a substrate of the respective transporter.
as §3
• UPTTRP: accumulated amount of test substance (TS) or probe substrate in transfected cells normalized by protein content […]
• UPTCTRL: accumulated amount of test substance (TS) or probe substrate in control cells normalized by protein content […]
Positive control conducted at pH 5.0.
Gly-Sar: Glycylsarcosine.

[1] = positive control: MPP+ 0.02 µM + Quinidine 1000 µM
[2] = positive control: cGMP 1.82 µM + Indomethacin 300 µM
[3] = positive control at pH 5.0: Gly-Sar 4 µM + Cefadroxil 200 µM
[4] = positive control at pH 5.0: Gly-Sar 4 µM

Structure (SMILES): C[n+]1ccc(-c2ccccc2)cc1 [MPP+, 1-Methyl-4-phenylpyridin-1-ium, reference compound]
Accumulation in OCT3 transporter expressing cells (human OCT3; [1]): 1429.667 cpm | Accumulation in control cells (human OCT3; [1]): 233.000 cpm | Accumulation, active transport (human OCT3; [1]): 1196.667 cpm | Fold accumulation (human OCT3; [1]): 6.14 | Accumulation in OCT3 transporter expressing cells (human OCT3; positive control: MPP+ 0.02 µM): 10728.333 cpm | Accumulation in control cells (human OCT3; positive control: MPP+ 0.02 µM): 629.333 cpm | Accumulation, active transport (human OCT3; positive control: MPP+ 0.02 µM): 10099.000 cpm | Fold accumulation (human OCT3; positive control: MPP+ 0.02 µM): 17.05

Structure (SMILES): Nc1nc2c(ncn2[C@@H]2O[C@@H]3COP(=O)(O)O[C@H]3[C@H]2O)c(=O)[nH]1 [cGMP, guanosine 3′,5′-cyclic monophosphate, reference compound]
Accumulation in OAT2v1 transporter expressing cells (human OAT2v1; [2]): 551.67 cpm | Accumulation in control cells (human OAT2v1; [2]): 67.67 cpm | Accumulation, active transport (human OAT2v1; [2]): 484.00 cpm | Fold accumulation (human OAT2v1; [2]): 8.15 | Accumulation in OAT2v1 transporter expressing cells (human OAT2v1; positive control: cGMP 1.82 µM): 9207.33 cpm | Accumulation in control cells (human OAT2v1; positive control: cGMP 1.82 µM): 75.00 cpm | Accumulation, active transport (human OAT2v1; positive control: cGMP 1.82 µM): 9132.33 cpm | Fold accumulation (human OAT2v1; positive control: cGMP 1.82 µM): 122.76

Accumulation in PEPT2 transporter expressing cells (human PEPT2; [3]): 263.67 cpm | Accumulation in control cells (human PEPT2; [3]): 34.33 cpm | Accumulation, active transport (human PEPT2; [3]): 229.33 cpm | Fold accumulation (human PEPT2; [3]): 7.68 | Accumulation in PEPT2 transporter expressing cells (human PEPT2; [4]): 1570.00 cpm | Accumulation in control cells (human PEPT2; [4]): 31.33 cpm | Accumulation, active transport (human PEPT2; [4]): 1538.67 cpm | Fold accumulation (human PEPT2; [4]): 50.11
Structure (SMILES): CN(CC(=O)O)C(=O)CN [Gly-Sar, glycylsarcosine, reference compound] (H-Gly-[Sar]-OH)

— article PMC11053447, “Human ABC and SLC Transporters: The Culprit Responsible for Unspecific PSMA-617 Uptake?” (Pharmaceuticals, 2024)
